The text below walks through data of US11427558B1, “Indazoles and azaindazoles as LRRK2 inhibitors” (ESCAPE Bio, Inc., priority 2019, dated 2022).

Assay [1] addresses Recombinant wild type LRRK2 protein (Homo sapiens (Human), UniProt Q5S007). Kind of assay: LRRK2 kinase activity, LanthaScreen TR-FRET assay (wild type). Conditions: LRRKtide 400 nM, 25 μM ATP, 60 min; read-out: LRRK2 WT IC50. Type of assay: biochemical. Here is the method:
(§1) LRRK2 kinase activity was measured using a LanthaScreen™ Kinase Activity Assay from ThermoFisher Scientific. Recombinant wild type or G2019S-LRRK2 protein (Life Technologies, PR8604B or PV4881, respectively), was incubated with a fluorescein-labeled peptide substrate called LRRKtide that is based upon ezrin/radixin/moesin (ERM) (Life Technologies, PV4901) in the presence of ATP and serially diluted compound. […] Compound-dependent inhibition of the TR-FRET signal was used to generate a concentration-response curve for IC50 determination.
(§2) After 60 min incubation at room temperature, the reaction was stopped by addition of 10 μL of 2× stop solution containing a final concentration of 2 nM anti-pERM antibody and 10 mM EDTA. […] The ratio of the 520 nm and 495 nm emission was used to analyze the data.

The target in assay [2] is Recombinant G2019S-LRRK2 protein (Homo sapiens (Human), UniProt Q5S007, G2019S). The experiment in a line: LRRK2 kinase activity, LanthaScreen TR-FRET assay (G2019S). Type of assay: biochemical. Conditions: LRRKtide 400 nM, 25 μM ATP, 60 min. Here is the method:
as §1, §2

Chain of Recombinant G2019S-LRRK2 protein (Q5S007 whole entry G2019S): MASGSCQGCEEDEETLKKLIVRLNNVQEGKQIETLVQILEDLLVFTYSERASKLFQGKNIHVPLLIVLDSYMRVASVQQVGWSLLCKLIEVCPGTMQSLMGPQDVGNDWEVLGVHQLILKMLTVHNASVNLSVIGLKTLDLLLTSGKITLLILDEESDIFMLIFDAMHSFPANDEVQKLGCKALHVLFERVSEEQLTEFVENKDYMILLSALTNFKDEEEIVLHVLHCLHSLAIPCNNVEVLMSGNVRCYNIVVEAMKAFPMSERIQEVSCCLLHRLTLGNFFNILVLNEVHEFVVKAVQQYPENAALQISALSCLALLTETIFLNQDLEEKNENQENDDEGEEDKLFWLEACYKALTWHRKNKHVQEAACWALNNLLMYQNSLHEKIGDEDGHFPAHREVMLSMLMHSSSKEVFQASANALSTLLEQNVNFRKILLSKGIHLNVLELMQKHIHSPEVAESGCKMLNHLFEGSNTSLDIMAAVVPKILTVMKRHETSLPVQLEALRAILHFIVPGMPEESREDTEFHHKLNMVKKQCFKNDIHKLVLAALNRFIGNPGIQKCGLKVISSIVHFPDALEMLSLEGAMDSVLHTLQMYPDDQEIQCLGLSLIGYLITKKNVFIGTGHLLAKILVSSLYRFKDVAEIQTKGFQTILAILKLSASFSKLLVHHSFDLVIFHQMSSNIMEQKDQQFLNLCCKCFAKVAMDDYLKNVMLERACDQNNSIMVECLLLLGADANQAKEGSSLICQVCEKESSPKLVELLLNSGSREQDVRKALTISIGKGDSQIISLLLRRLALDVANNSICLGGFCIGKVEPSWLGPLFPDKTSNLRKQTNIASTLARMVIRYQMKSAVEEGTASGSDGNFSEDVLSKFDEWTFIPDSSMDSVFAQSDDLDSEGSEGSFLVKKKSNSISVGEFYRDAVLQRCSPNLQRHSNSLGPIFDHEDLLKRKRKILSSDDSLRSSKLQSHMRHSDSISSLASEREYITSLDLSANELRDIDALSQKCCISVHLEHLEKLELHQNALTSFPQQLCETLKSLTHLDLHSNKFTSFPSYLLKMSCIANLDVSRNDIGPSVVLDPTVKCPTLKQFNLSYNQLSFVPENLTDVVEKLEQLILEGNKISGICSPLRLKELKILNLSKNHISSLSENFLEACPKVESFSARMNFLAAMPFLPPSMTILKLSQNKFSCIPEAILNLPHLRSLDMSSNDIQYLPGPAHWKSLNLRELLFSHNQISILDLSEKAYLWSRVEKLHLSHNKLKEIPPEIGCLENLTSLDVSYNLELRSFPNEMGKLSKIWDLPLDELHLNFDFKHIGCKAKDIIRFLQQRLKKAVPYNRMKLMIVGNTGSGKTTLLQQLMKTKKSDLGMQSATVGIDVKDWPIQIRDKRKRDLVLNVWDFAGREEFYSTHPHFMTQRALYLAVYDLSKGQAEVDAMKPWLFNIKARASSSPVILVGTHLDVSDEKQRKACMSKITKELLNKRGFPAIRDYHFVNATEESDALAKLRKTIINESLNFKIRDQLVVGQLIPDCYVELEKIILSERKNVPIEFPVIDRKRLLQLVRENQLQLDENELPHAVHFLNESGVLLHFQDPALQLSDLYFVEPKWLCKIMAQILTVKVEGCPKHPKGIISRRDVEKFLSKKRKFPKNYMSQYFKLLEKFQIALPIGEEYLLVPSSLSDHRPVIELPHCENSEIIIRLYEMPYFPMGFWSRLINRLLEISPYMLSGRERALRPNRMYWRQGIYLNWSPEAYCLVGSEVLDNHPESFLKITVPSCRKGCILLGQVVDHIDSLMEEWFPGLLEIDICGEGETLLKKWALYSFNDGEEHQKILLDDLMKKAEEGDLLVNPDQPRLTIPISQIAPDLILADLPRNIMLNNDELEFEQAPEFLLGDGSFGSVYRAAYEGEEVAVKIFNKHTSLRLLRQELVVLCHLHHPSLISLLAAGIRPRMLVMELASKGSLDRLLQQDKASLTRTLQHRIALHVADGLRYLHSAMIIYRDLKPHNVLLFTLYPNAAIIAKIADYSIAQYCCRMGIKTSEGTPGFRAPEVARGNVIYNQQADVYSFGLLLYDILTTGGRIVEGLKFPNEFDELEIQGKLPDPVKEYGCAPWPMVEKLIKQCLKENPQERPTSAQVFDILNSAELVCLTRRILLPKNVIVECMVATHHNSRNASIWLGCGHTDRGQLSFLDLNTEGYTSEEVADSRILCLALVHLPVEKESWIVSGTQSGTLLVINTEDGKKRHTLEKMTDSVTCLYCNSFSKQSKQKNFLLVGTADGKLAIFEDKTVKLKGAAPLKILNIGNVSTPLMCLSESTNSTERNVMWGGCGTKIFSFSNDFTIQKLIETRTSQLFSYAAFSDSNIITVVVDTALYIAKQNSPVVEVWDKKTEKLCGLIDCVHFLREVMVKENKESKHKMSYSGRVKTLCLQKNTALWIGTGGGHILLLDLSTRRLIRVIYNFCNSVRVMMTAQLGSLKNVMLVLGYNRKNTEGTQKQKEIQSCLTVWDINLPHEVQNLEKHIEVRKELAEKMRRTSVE
Chain of Recombinant wild type LRRK2 protein (Q5S007 whole entry): as the sequence (Q5S007 whole entry G2019S) above, with S2019G counted along it

For `Cc1c(C#N)cnc(C(=O)Nc2ccc3[nH]nc(-c4ncco4)c3c2)c1C` [Example 198, 5-Cyano-3,4-dimethyl-N-(3-(oxazol-2-yl)-1H-indazol-5-yl)picolinamide], the IC50 in assay [1] was 0.1 to 1 µM; in assay [2] it was less than 0.1 µM. For the compound `COc1cc(-c2n[nH]c3ccc(NC(=O)c4ncc(C#N)c(C)c4C)cc23)cc(C)n1` [Example 219, 5-Cyano-N-(3-(2-methoxy-6-methylpyridin-4-yl)-1H-indazol-5-yl)-3,4-dimethylpicolinamide], the IC50 in assay [1] and in assay [2] was less than 0.1 µM throughout. As for `Cc1cc(C#N)cnc1C(=O)Nc1ccc2[nH]nc(N3CC(F)(F)C3)c2c1` [Example 254, 5-Cyano-N-(3-(3,3-difluoroazetidin-1-yl)-1H-indazol-5-yl)-3-methylpicolinamide], the values for the IC50 in assay [1] and in assay [2] were 1 to 10 µM and 0.1 to 1 µM, respectively. The like results for `Cc1ccc(-c2n[nH]c3ccc(NC(=O)c4ncc(C#N)cc4C)cc23)cc1C` [Example 28, 5-Cyano-N-(3-(3,4-dimethylphenyl)-1H-indazol-5-yl)-3-methylpicolinamide] were, in that order, 0.1 to 1 µM and less than 0.1 µM. Consider `Cc1nc(C#N)ccc1C(=O)Nc1ccc2[nH]nc(-c3ccoc3)c2c1` [Example 8, 6-Cyano-N-(3-(furan-3-yl)-1H-indazol-5-yl)-2-methylnicotinamide], for which the IC50 in assay [1] is 0.1 to 1 µM; in assay [2], less than 0.1 µM. In the case of `Cc1cc(-c2n[nH]c3ccc(NC(=O)c4ncc(C#N)c(C)c4C)cc23)on1` [Example 229, 5-Cyano-3,4-dimethyl-N-(3-(3-methylisoxazol-5-yl)-1H-indazol-5-yl)picolinamide], the IC50 in assay [1] and in assay [2] was less than 0.1 µM throughout. Turning to `Cc1cc(C#N)cnc1C(=O)Nc1ccc2[nH]nc(-c3cnn(C(F)F)c3)c2c1` [Example 32, 5-Cyano-N-(3-(1-(difluoromethyl)-1H-pyrazol-4-yl)-1H-indazol-5-yl)-3-methylpicolinamide], the results for the IC50 in assay [1] and in assay [2] were 0.1 to 1 µM and less than 0.1 µM, respectively. Consider `Cc1c(C#N)cnc(C(=O)Nc2ccc3[nH]nc([C@@H]4CC4c4ccccc4)c3c2)c1C` (stereo partly drawn) [Example 252, 5-Cyano-3,4-dimethyl-N-(3-((1R)-2-phenylcyclopropyl)-1H-indazol-5-yl)picolinamide], for which the results for the IC50 in assay [1] and in assay [2] were 0.1 to 1 µM and less than 0.1 µM, respectively. On to `Cc1cc(C#N)cnc1C(=O)Nc1ccc2[nH]nc(-c3ccnc(N4C[C@H](C)O[C@@H](C)C4)c3)c2c1` [Example 115, 5-Cyano-N-(3-(2-((2S,6S)-2,6-dimethylmorpholino)pyridin-4-yl)-1H-indazol-5-yl)-3-methylpicolinamide], for which the IC50 in assay [1] and in assay [2] was less than 0.1 µM throughout. With `N#Cc1cccc(C(=O)Nc2ccc3[nH]nc(-c4cnco4)c3c2)c1F` [Example 199, 3-Cyano-2-fluoro-N-(3-(oxazol-5-yl)-1H-indazol-5-yl)benzamide], the IC50 in assay [1] and in assay [2] was less than 0.1 µM each time.

Turning to `Cc1cc(C#N)cnc1C(=O)Nc1ccc2[nH]nc(-c3ccccc3)c2c1` [Example 40, 5-Cyano-3-methyl-N-(3-phenyl-1H-indazol-5-yl)picolinamide], the IC50 is 0.1 to 1 µM in assay [1] and less than 0.1 µM in assay [2]. On to `Cc1c(C#N)cnc(C(=O)Nc2ccc3[nH]nc(/C=C/c4ccccn4)c3c2)c1C` [Example 248, (E)-5-Cyano-3,4-dimethyl-N-(3-(2-(pyridin-2-yl)vinyl)-1H-indazol-5-yl)picolinamide], for which the IC50 in assay [1] and in assay [2] was less than 0.1 µM each time. `Cc1c(C#N)cnc(C(=O)Nc2ccc3[nH]nc(Br)c3c2)c1C` [Example 300, N-(3-Bromo-1H-indazol-5-yl)-5-cyano-3,4-dimethylpicolinamide]: the concentration for half-maximal inhibition (IC50) is 0.1 to 1 µM in assay [1] and less than 0.1 µM in assay [2]. With `Cc1c(C#N)cnc(C(=O)Nc2ccc3[nH]nc(-c4cnn(C)c4)c3c2)c1C` [Example 187, 5-Cyano-3,4-dimethyl-N-(3-(1-methyl-1H-pyrazol-4-yl)-1H-indazol-5-yl)picolinamide], the IC50 in assay [1] and in assay [2] was less than 0.1 µM each time.

Take `N#Cc1ccnc(C(=O)Nc2ccc3[nH]nc(-c4ccoc4)c3c2)c1F` [Example 79, 4-Cyano-3-fluoro-N-(3-(furan-3-yl)-1H-indazol-5-yl)picolinamide]: the IC50 in assay [1] and in assay [2] was 0.1 to 1 µM each time. Consider `Cc1cc(C#N)cc(C)c1C(=O)Nc1ccc2[nH]nc(-c3ccoc3)c2c1` [Example 10, 4-Cyano-N-(3-(furan-3-yl)-1H-indazol-5-yl)-2,6-dimethylbenzamide], for which the IC50 in assay [1] and in assay [2] was less than 0.1 µM throughout. Regarding `Cc1cc(C#N)cnc1C(=O)Nc1ccc2[nH]nc(-c3cccc(OC(F)(F)F)c3)c2c1` [Example 54, 5-Cyano-3-methyl-N-(3-(3-(trifluoromethoxy)phenyl)-1H-indazol-5-yl)picolinamide], the IC50 in assay [1] was 1 to 10 µM; in assay [2], 0.1 to 1 µM.

With `CCc1c(C#N)cccc1C(=O)Nc1ccc2[nH]nc(-c3ccoc3)c2c1` [Example 75, 3-Cyano-2-ethyl-N-(3-(furan-3-yl)-1H-indazol-5-yl)benzamide], the IC50 in assay [1] and in assay [2] was less than 0.1 µM each time.

Regarding `Cc1c(C(=O)Nc2ccc3[nH]nc(-c4cnco4)c3c2)ncc(C#N)c1C(F)(F)F` [Example 289, 5-Cyano-3-methyl-N-(3-(oxazol-5-yl)-1H-indazol-5-yl)-4-(trifluoromethyl)picolinamide], the IC50 in assay [1] and in assay [2] was less than 0.1 µM in each case. On to `Cc1cc(C#N)cnc1C(=O)Nc1ccc2[nH]nc(-n3cccn3)c2c1` [Example 136, N-(3-(1H-Pyrazol-1-yl)-1H-indazol-5-yl)-5-cyano-3-methylpicolinamide], for which the results for the IC50 in assay [1] and in assay [2] were 1 to 10 µM and 0.1 to 1 µM, respectively. As to `Cc1c(C#N)noc1C(=O)Nc1ccc2[nH]nc(-c3ccoc3)c2c1` [Example 180, 3-Cyano-N-(3-(furan-3-yl)-1H-indazol-5-yl)-4-methylisoxazole-5-carboxamide], the IC50 in assay [1] and in assay [2] was 0.1 to 1 µM each time. As to `Cc1c(C#N)cnc(C(=O)Nc2ccc3[nH]nc(/C=C/c4ccncc4)c3c2)c1C` [Example 281, (E)-5-Cyano-3,4-dimethyl-N-(3-(2-(pyridin-4-yl)vinyl)-1H-indazol-5-yl)picolinamide], the IC50 in assay [1] and in assay [2] was less than 0.1 µM each time. Turning to `Cc1nc(C(=O)Nc2ccc3[nH]nc(C)c3c2)c(C)c(C)c1C#N` [Example 325, 5-Cyano-3,4,6-trimethyl-N-(3-methyl-1H-indazol-5-yl)picolinamide], the IC50 is 1 to 10 µM in assay [1] and less than 0.1 µM in assay [2]. With `N#Cc1cccc(C(=O)Nc2ccc3[nH]nc(-c4ccoc4)c3c2)c1Cl` [Example 86, 2-chloro-3-cyano-N-(3-(furan-3-yl)-1H-indazol-5-yl)benzamide], the IC50 in assay [1] and in assay [2] was less than 0.1 µM in each case. On to `Cn1cc(C#N)cc1C(=O)Nc1ccc2[nH]nc(-c3cnoc3)c2c1` [Example 247, 4-Cyano-N-(3-(isoxazol-4-yl)-1H-indazol-5-yl)-1-methyl-1H-pyrrole-2-carboxamide], for which the IC50 in assay [1] and in assay [2] was less than 0.1 µM in each case. For `Cc1cc(C#N)cnc1C(=O)Nc1ccc2[nH]nc(-c3ccoc3)c2n1` [Example 105, 5-Cyano-N-(3-(furan-3-yl)-1H-pyrazolo[4,3-b]pyridin-5-yl)-3-methylpicolinamide], in assay [1], the concentration for half-maximal inhibition (IC50) was in the range of 0.1 to 1 µM.
